Results as given in patent US20240059680A1, “N-(2,3-DIHYDRO-1,4-BENZOXAZIN-4-YL)-3-ISOPROPYL-7-(2,3,5-TRIFLUOROPHENYL)BENZO-THIOPHENE-2-CARBOXAMIDE DERIVATIVES AND SIMILAR COMPOUNDS FOR THE TREATMENT OF HEARTWORM INFECTIONS” (ELANCO TIERGESUNDHEIT AG, priority 2020, published 2024).
Converted amounts (≈) assume the structure as drawn. Where two headings read alike, the source gives them in different places.

What was measured:
[1] = system: Dirofilaria immitis microfilariae; assay: In Vitro Assay 3: Dirofilaria immitis microfilariae (DIROIM L1) motility; format: cell-based; conditions: 72 h
D. immitis Slo-1 = D. immitis Slo-1 (Dirofilaria immitis, UniProt I0DFK5); assay: In Vitro Assay 2: D. immitis Slo-1, membrane potential measurement in recombinant CHO cell line; format: cell-based
[2] = system: Dirofilaria immitis third-stage larvae; assay: In Vitro Assay 4: Dirofilaria immitis (DIROIM L4) larval motility; format: cell-based; conditions: 72 h
C. elegans Slo-1a = C. elegans Slo-1a (Caenorhabditis elegans, UniProt Q95V25)
Protocol: For transfection with plasmid DNA to express C. elegans Slo-1a (accession number AAL28102) CHO cells were passaged to 40% confluence before adding the transfection solution to the cell culture. The transfection solution included 300 μL OptiMEM (Life Technologies, Nr.: 31985), 2 μL (=6 μg) of plasmid DNA containing the C. elegans Slo-1a gene and 9 μL FugeneHD (Promega, Nr.: E2311), and was added to the cells prior to incubation for 48 hours at 37° C., 5% CO2. The transfection medium was exchanged for the selection medium which contains additional G418 (2 mg/ml, Invitrogen, Nr.: 10131) and the cells were seeded into 384 well plates (300 cells/well). After a few weeks, the remaining surviving cells were tested with a voltage sensitive dye (Membrane Potential Assay Kit, Molecular Devices Nr.: R8034) for K+ channel expression. Positive cell clones were purified by the limited dilution technique. For this the clone with the highest and most robust signal in the voltage sensitive dye assay was further subcloned (incubated) in 384 well plates (0.7 cells/well) to obtain clonal purity. This generated a final stable CHO cell line expressing the C. elegans Slo-1a.
Cell culture conditions Cells were cultured at 37° C. and 5% CO2 in MEMalpha with Gutamax I (Invitrogen, Nr.: 32571), supplemented with 10% (v/v) heat inactivated fetal bovine serum (Invitrogen, Nr.: 10500), G418 (1 mg/ml, Invitrogen, Nr.: 10131). Cells were detached using Accutase (Sigma, Nr.: A6964).
Membrane Potential Measurements
Laboratory compound testing was performed on 384-well microtiter plates (MTPs, Greiner, Nr.: 781092). 8000 cells/well were plated onto 384-well MTPs and cultured for 20 to 24 hours at 37° C. and 5% CO2. After removal of the cell culture medium, the cells were washed once with tyrode (150 mM NaCl, 0.3 mM KCl, 2 mM CaCl2, 1 m M MgCl2, 0.8 mM NaH2PO4, 5 mM Glucose, 28 mM Hepes, pH 7.4) and then loaded with the voltage sensitive dye of the Membrane Potential Assay Kit diluted in tyrode for 1 h at room temperature. After starting the measurement of fluorescence using a FLIPR Tetra (Molecular Devices, Exc. 510-545 nm, Emm. 565-625 nm), test compounds were added followed by the addition of KCl tyrode (final assay concentration: 70 mM KCl, 2 mM CaCl2, 1 mM MgCl2, 0.8 mM NaH2PO4, 5 mM Glucose, 28 mM Hepes, pH 7.4, including the voltage sensitive dye). The measurement was completed after 7 minutes.
EC50 values were calculated using a four-parameter plotting by the Scilligence ELN/Regmol Software Tool, Bioassay.

[3] = system: Adult Nippostrongylus brasiliensis; assay: In Vitro Assay 5: Nippostrongylus brasiliensis (NIPOBR), acetylcholine esterase readout; format: cell-based
Protocol: In Vitro Assay 5: Nippostrongylus Brasiliensis (NIPOBR)
Adult Nippostrongylus brasiliensis were washed with saline buffer containing 100 U/ml penicillin, 0.1 mg/ml streptomycin and 2.5 μg/ml amphotericin B. Test compounds were dissolved in DMSO and worms were incubated in medium in a final concentration of 10 μg/ml (10 ppm), 1 μg/ml (1 ppm) and 0.1 μg/ml (0.1 ppm) respectively. An aliquot of the medium was used to determine the acetylcholine esterase activity in comparison to a negative control. The principle of measuring acetylcholine esterase as readout for anthelmintic activity was described in Rapson et al (1986) and Rapson et al (1987).
Based on the evaluation of a wide concentration range, concentration-response curves as well as EC50-values were calculated.

[4] = acetylcholine esterase activity in medium vs negative control, adult worms, read-out: EC50

C. elegans Slo-1a, sequence (Q95V25 whole entry): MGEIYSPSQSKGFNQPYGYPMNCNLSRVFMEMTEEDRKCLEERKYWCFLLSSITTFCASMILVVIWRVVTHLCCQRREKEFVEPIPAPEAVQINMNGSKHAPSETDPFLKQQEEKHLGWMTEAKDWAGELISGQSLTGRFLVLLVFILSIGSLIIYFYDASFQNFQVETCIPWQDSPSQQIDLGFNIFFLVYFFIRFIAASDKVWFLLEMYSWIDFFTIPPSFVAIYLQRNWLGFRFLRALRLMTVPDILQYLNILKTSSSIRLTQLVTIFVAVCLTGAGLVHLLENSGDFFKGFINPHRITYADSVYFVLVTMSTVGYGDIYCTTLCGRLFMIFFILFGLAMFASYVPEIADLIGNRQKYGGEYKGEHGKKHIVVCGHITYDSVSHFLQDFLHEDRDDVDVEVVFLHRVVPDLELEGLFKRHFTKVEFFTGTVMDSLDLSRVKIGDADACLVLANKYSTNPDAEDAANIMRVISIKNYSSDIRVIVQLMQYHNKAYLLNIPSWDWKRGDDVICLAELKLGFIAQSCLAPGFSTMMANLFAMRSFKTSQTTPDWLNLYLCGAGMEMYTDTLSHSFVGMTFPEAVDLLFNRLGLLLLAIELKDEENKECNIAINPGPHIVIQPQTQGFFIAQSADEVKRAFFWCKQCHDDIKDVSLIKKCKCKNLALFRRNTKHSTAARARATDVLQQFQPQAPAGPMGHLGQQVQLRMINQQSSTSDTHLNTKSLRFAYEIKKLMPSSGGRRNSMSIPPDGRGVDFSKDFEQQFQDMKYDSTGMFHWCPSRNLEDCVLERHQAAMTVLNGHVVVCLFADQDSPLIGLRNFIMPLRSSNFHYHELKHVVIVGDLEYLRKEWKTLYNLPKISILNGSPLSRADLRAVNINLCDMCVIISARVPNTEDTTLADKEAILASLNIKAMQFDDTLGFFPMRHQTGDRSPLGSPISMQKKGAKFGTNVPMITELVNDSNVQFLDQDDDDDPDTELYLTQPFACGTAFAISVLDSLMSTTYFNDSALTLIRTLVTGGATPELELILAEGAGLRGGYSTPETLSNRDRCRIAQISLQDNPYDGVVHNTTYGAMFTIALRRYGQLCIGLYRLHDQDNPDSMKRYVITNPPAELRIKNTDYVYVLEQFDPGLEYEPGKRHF
D. immitis Slo-1, sequence (I0DFK5 1-1119): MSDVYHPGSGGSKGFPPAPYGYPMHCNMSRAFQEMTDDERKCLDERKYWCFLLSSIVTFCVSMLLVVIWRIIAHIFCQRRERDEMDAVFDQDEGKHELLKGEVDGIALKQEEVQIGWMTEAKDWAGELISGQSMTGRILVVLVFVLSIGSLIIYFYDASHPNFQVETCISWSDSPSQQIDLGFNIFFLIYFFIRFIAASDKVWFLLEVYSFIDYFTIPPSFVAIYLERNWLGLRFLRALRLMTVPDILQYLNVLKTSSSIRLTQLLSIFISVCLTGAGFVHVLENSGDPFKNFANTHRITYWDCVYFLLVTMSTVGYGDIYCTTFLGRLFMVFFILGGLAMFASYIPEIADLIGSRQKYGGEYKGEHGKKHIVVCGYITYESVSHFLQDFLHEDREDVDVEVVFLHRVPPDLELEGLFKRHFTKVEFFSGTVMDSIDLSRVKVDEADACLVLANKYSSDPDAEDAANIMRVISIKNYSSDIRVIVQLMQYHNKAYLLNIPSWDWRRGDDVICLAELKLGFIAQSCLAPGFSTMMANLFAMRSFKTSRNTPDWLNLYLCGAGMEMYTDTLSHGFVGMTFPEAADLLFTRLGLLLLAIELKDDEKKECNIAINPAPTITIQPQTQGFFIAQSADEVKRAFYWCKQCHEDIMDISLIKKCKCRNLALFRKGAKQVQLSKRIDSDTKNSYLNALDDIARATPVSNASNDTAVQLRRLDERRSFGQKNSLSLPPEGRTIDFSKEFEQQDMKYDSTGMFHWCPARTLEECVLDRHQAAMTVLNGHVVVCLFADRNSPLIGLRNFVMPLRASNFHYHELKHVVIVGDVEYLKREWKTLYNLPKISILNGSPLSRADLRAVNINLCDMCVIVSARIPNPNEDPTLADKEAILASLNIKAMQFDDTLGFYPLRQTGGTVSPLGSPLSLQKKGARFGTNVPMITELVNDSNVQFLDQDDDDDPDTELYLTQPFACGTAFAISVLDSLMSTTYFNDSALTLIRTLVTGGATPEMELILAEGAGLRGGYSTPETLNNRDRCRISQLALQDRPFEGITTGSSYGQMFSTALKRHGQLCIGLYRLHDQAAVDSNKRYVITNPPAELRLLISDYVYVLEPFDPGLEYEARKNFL

SMILES	EC50 [1]	EC50 (D. immitis Slo-1)	EC50 [2]	EC50 (C. elegans Slo-1a)	EC50 [3]	EC50 [3, 4]
CC(C)c1c(C(=O)NN2CCOc3ccccc32)sc2c(-c3cc(F)cc(F)c3F)c(F)cnc12 [Example 6.3, N-(2,3-Dihydro-4H-benzo[b][1,4]oxazin-4-yl)-6-fluoro-3-isopropyl-7-(2,3,5-trifluoro-phenyl)thieno[3,2-b]pyridine-2-carboxamide]	< 0.1 µg/mL	< 100 nM	< 0.1 µg/mL	< 100 nM	< 0.1 µg/mL	–
Cc1nn2c(C(C)C)c(C(=O)NN3CCOc4ccccc43)sc2c1-c1cc(F)cc(F)c1F [Example 4.1, N-(2,3-Dihydro-1,4-benzoxazin-4-yl)-3-isopropyl-6-methyl-7-(2,3,5-trifluorophenyl)-pyrazolo[5,1-b]thiazole-2-carboxamide]	0.1 to 1 µg/mL (≈ 0.206 to 2.06 µM)	> 1000 nM	< 0.1 µg/mL	< 100 nM	–	> 1 µg/mL
CC(C)(O)c1c(C(=O)NN2CCOc3ccccc32)sc2c(-c3cc(F)cc(F)c3F)c(F)cnc12 [Example 6.1, N-(2,3-Dihydro-4H-benzo[b][1,4]oxazin-4-yl)-6-fluoro-3-(2-hydroxypropan-2-yl)-7-(2,3,5-trifluorophenyl)thieno[3,2-b]pyridine-2-carboxamide]	< 0.1 µg/mL	< 100 nM	< 0.1 µg/mL	< 100 nM	< 0.1 µg/mL	–
CC(C)c1c(C(=O)NN2CCOc3ccccc32)cnc2c(-c3cc(F)cc(F)c3F)ncn12 [Example 11.1, N-(2,3-Dihydro-4H-benzo[b][1,4]oxazin-4-yl)-4-isopropyl-8-(2,3,5-trifluoro-phenyl)-imidazo[1,5-a]pyrimidine-3-carboxamide]	0.1 to 1 µg/mL (≈ 0.214 to 2.14 µM)	> 1000 nM	< 0.1 µg/mL	100 to 1000 nM	–	> 1 µg/mL
O=C(NN1CCOc2ccccc21)c1sc2c(-c3cc(F)cc(F)c3F)ccnc2c1N1CC(F)C1 [Example 6.6, N-(2,3-dihydro-4H-benzo[b][1,4]oxazin-4-yl)-3-(3-fluoroazetidin-1-yl)-7-(2,3,5-trifluorophenyl)thieno[3,2-b]pyridine-2-carboxamide]	< 0.1 µg/mL	> 1000 nM	0.1 to 1 µg/mL (≈ 0.194 to 1.94 µM)	100 to 1000 nM	–	> 1 µg/mL
CC(C)n1c(C(=O)NN2CCOc3ccccc32)nc2c(-c3cc(F)cc(F)c3F)nccc21 [Example 12.1, N-(2,3-Dihydro-4H-benzo[b][1,4]oxazin-4-yl)-1-isopropyl-4-(2,3,5-trifluorophenyl)-1H-imidazo[4,5-c]pyridine-2-carboxamide]	0.1 to 1 µg/mL (≈ 0.214 to 2.14 µM)	> 1000 nM	< 0.1 µg/mL	> 1000 nM	–	> 1 µg/mL
CC(C)(O)c1c(C(=O)NN2CCOc3ccccc32)sc2c(-c3cc(F)cc(F)c3F)ccnc12 [Example 6.5, N-(2,3-Dihydro-4H-benzo[b][1,4]oxazin-4-yl)-3-(2-hydroxypropan-2-yl)-7-(2,3,5-trifluorophenyl)thieno[3,2-b]pyridine-2-carboxamide]	< 0.1 µg/mL	< 100 nM	< 0.1 µg/mL	< 100 nM	–	0.1 to 1 µg/mL (≈ 0.2 to 2 µM)
Cc1cnc2c(C(C)C)c(C(=O)NN3CCOc4ccccc43)nn2c1-c1cc(F)cc(F)c1F [Example 9.1, N-(2,3-Dihydro-4H-benzo[b][1,4]oxazin-4-yl)-3-isopropyl-6-methyl-7-(2,3,5-trifluorophenyl)-pyrazolo[1,5-a]pyrimidine-2-carboxamide]	< 0.1 µg/mL	> 1000 nM	0.1 to 1 µg/mL (≈ 0.208 to 2.08 µM)	> 1000 nM	–	> 1 µg/mL
O=C(NN1CCOc2ccccc21)c1sc2c(-c3cc(F)cc(F)c3F)nccc2c1N1CCOCC1 [Example 2.1, N-(2,3-Dihydro-1,4-benzoxazin-4-yl)-3-morpholino-7-(2,3,5-trifluorophenyl)thieno-[2,3-c]pyridine-2-carboxamide]	0.1 to 1 µg/mL (≈ 0.19 to 1.9 µM)	100 to 1000 nM	0.1 to 1 µg/mL (≈ 0.19 to 1.9 µM)	100 to 1000 nM	–	> 1 µg/mL
